These results are taken from patent US11591355B2 (Peloton Therapeutics, Inc., priority 2017, dated 2023).

Read-outs that look alike come from different tables or passages of the source.

This experiment concerns the target T1, Human CD73 (Homo sapiens, UniProt P21589).
T1 construct: purchased R&D Systems; host or cells: CHO cells
T1 sequence (P21589 27-549): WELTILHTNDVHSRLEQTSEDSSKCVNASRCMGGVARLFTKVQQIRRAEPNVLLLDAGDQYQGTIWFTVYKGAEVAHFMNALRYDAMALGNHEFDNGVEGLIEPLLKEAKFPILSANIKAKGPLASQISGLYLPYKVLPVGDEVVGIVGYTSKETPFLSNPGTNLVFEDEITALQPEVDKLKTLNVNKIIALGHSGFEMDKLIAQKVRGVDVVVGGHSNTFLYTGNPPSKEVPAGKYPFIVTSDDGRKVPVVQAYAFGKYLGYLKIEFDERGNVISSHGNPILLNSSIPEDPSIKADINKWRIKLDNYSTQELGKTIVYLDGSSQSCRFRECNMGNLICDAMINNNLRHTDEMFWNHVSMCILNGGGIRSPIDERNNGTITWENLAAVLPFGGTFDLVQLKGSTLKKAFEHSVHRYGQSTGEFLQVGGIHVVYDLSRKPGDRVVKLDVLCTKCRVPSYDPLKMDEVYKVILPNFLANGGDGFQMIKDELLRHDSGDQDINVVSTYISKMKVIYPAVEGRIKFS
Description: CD73 Enzyme Assay. Type of experiment: biochemical.

The mark [1] stands for this setting: 0.25 nM hCD73, 25 μM AMP, kinetic read at 360 nm, read-out: CD73 Enzyme Assay IC50.

One may read the IC50 as the point on the concentration scale where inhibition reaches its midpoint. Take `Nc1ncnc2c1ncn2[C@@H]1O[C@H](COCP(=O)(O)O)[C@@H](O)[C@H]1O` [Compound 2, [(2R,3S,4R,5R)-5-(6-aminopurin-9-yl)-3,4-dihydroxy-tetrahydrofuran-2-yl]methoxymethyl-phosphonic acid]: the IC50 under setting [1] was more than 1000 nM.

For the compound `Nc1ncnc2c1ncn2[C@@H]1O[C@H](COP(=O)(O)CP(=O)(O)O)[C@@H](O)[C@H]1O` [adenosine 5′-(α,β-methylene)diphosphate, reference compound], under “read-out: IC50”, the IC50 stood at 50 nM.

Take `O=P(COC[C@H]1O[C@@H](n2ccc3c(NC4CCCC4)nc(Cl)nc32)[C@H](O)[C@@H]1O)(OCC(F)(F)F)OCC(F)(F)F` [Compound 226, (2R,3S,4R,5R)-2-[bis(2,2,2-trifluoro-ethoxy)phosphoryl-methoxymethyl]-5-[2-chloro-4-(cyclopentyl-amino)pyrrolo[2,3-d]-pyrimidin-7-yl]tetra-hydrofuran-3,4-diol]: the IC50 under setting [1] is more than 1000 nM.

As to `O=P(O)(O)COC[C@H]1O[C@@H](c2scc3c(N4CCCC4)nc(O)nc23)[C@H](O)[C@@H]1O` [Compound 302], the IC50 under setting [1] was more than 1000 nM.

On to `CC(C)N(C)c1ncnc2c1ncn2[C@@H]1O[C@H](COCP(=O)(O)O)[C@@H](O)[C@H]1O` [Compound 31], for which the IC50 under setting [1] is more than 1000 nM.

On to `Cc1oc(=O)oc1COP(=O)(O)COC[C@H]1O[C@@H](n2ccc3c(NC4CCCC4)nc(Cl)nc32)[C@H](O)[C@@H]1O` [Compound 225, [(2R,3S,4R,5R)-5-[2-chloro-4-(cyclopentyl-amino)pyrrolo[2,3-d]-pyrimidin-7-yl]-3,4-dihydroxy-tetrahydro-furan-2-yl]methoxy-methyl-[(5-methyl-2-oxo-1,3-dioxol-4-yl)-methoxy]phosphinic acid], for which the IC50 under setting [1] lay within 10 to 100 nM.

As for `NS(=O)(=O)c1cccc(CNc2ncnc3c2ncn3[C@@H]2O[C@H](COCP(=O)(O)O)[C@@H](O)[C@H]2O)c1` [Compound 63], the IC50 under setting [1] was more than 1000 nM.

For the compound `O=P(O)(O)C(c1ccccc1)S(=O)(=O)C[C@H]1O[C@@H](n2cnc3c(NCc4ccccc4)ncnc32)[C@H](O)[C@@H]1O` (stereo partly drawn) [Compound 150, [[(2S,3S,5R)-5-[6-(benzylamino)purin-9-yl]-3,4-dihydroxy-tetrahydrofuran-2-yl]methylsulfonyl-phenylmethyl]phos-phonic acid], the IC50 under setting [1] is more than 1000 nM.

In turn, `O=P(COC[C@H]1O[C@@H](n2ccc3c(NC4CCCC4)nc(Cl)nc32)[C@H](O)[C@@H]1O)(Oc1ccccc1)Oc1ccccc1` [Compound 215] gave an IC50 of more than 1000 nM.

In the case of `O=P(O)(O)COC[C@H]1O[C@@H](n2ccc3c(NC4CCCC4)nc(OCc4ccccn4)nc32)[C@H](O)[C@@H]1O` [Compound 264, [(2R,3S,4R,5R)-5-[4-(cyclopentylamino)-2-(2-pyridylmethoxy)-pyrrolo[2,3-d]pyrimidin-7-yl]-3,4-dihydroxy-tetrahydrofuran-2-yl]-methoxymethylphos-phonic acid], under setting [1], the IC50 fell in the range of 100 to 1000 nM.

With `O=P(O)(O)CSC[C@H]1O[C@@H](n2cnc3c(NCc4ccccc4)ncnc32)[C@H](O)[C@@H]1O` [Compound 151, [(2S,3S,5R)-5-[6-(benzylamino)purin-9-yl]-3,4-dihydroxy-tetrahydrofuran-2-yl]methylsulfanyl-methylphosphonic acid], the IC50 under setting [1] is more than 1000 nM.

Consider `CCOP(=O)(COC[C@H]1O[C@@H](n2ccc3c(NC4CCCC4)nc(Cl)nc32)[C@H](O)[C@@H]1O)OCC` [Compound 185], for which the IC50 is more than 1000 nM.

For the compound `O=P(O)(O)COC[C@H]1O[C@@H](n2cnc3c(NCc4cccc(CO)c4)ncnc32)[C@H](O)[C@@H]1O` [Compound 64, [(2R,3S,4R,5R)-3,4-dihydroxy-5-[6-[[3-(hydroxymethyl)-phenyl]methylamino]-purin-9-yl]tetrahydro-furan-2-yl]methoxy-methylphosphonic acid], the IC50 under setting [1] was more than 1000 nM.

On to `O=c1c2ncn([C@@H]3O[C@H](COCP(=O)(O)O)[C@@H](O)[C@H]3O)c2ncn1Cc1ccccc1` [Compound 42, [(2R,3S,4R,5R)-5-(1-benzyl-6-oxo-purin-9-yl)-3,4-dihydroxy-tetrahydrofuran-2-yl]-methoxymethylphos-phonic acid], for which, under setting [1], the IC50 is more than 1000 nM.

As for `O=P(O)(COC[C@H]1O[C@@H](n2ccc3c(NC4CCCC4)nc(Cl)nc32)[C@H](O)[C@@H]1O)Oc1ccc(F)cc1` [Compound 228, [(2R,3S,4R,5R)-5-[2-chloro-4-(cyclopentyl-amino)pyrrolo[2,3-d]-pyrimidin-7-yl]-3,4-dihydroxy-tetrahydro-furan-2-yl]methoxy-methyl-(4-fluoro-phenoxy)phosphinic acid], the IC50 is more than 1000 nM.

In the case of `O=P(O)(O)COC[C@H]1O[C@@H](n2cnc3c(NCc4cccnc4)ncnc32)[C@H](O)[C@@H]1O` [Compound 27, [(2R,3S,4R,5R)-3,4-dihydroxy-5-[6-(3-pyridylmethylamino)-purin-9-yl]tetrahydro-furan-2-yl]methoxy-methylphosphonic acid], the 50% inhibitory concentration (IC50) under setting [1] is more than 1000 nM.

On to `O=C(OCOP(=O)(O)COC[C@H]1O[C@@H](n2ccc3c(NC4CCCC4)nc(Cl)nc32)[C@H](O)[C@@H]1O)N1CCOCC1` [Compound 237, [(2R,3S,4R,5R)-5-[2-chloro-4-(cyclopentyl-amino)pyrrolo[2,3-d]-pyrimidin-7-yl]-3,4-dihydroxy-tetrahydro-furan-2-yl]methoxy-methyl-(morpholine-4-carbonyloxy-methoxy)phosphinic acid], for which the IC50 under setting [1] was 10 to 100 nM.

Consider `CC(C)OC(=O)OCOP(=O)(COC[C@H]1O[C@@H](n2ccc3c(N4CC5CCCC5C4)nc(Cl)nc32)[C@H](O)[C@@H]1O)OCOC(=O)OC(C)C` (stereo partly drawn) [Compound 208, [[(2R,3S,4R,5R)-5-[4-(3,3a,4,5,6,6a-hexa-hydro-1H-cyclopenta-[c]pyrrol-2-yl)-2-chloro-pyrrolo[2,3-d]-pyrimidin-7-yl]-3,4-dihydroxy-tetrahydro-furan-2-yl]methoxy-methyl-(isopropoxy-carbonyloxymethoxy)-phosphorl]oxymethyl isopropyl carbonate], for which the IC50 under setting [1] is more than 1000 nM.

Regarding `O=P(O)(O)COC[C@H]1O[C@@H](n2cnc3c(N4CCCC4c4ccccc4)ncnc32)[C@H](O)[C@@H]1O` (stereo partly drawn) [Compound 45, [(2R,3S,4R,5R)-3,4-dihydroxy-5-[6-(2-phenylpyrrolidin-1-yl)-purin-9-yl]tetrahydro-furan-2-yl]methoxy-methylphosphonic acid], the IC50 under setting [1] lay within 100 to 1000 nM.

In the case of `CCOP(=O)(O)COC[C@H]1O[C@@H](n2cnc3c(NCc4ccccc4)ncnc32)[C@H](O)[C@@H]1O` [Compound 7, [(2R,3S,4R,5R)-5-[6-(benzylamino)purin-9-yl]-3,4-dihydroxy-tetrahydrofuran-2-yl]-methoxymethyl-ethoxy-phosphinic acid], the IC50 was more than 1000 nM.

For the compound `O=P(O)(O)COC[C@H]1O[C@@H](n2cnc3c(NCCCO)ncnc32)[C@H](O)[C@@H]1O` [Compound 26, [(2R,3S,4R,5R)-3,4-dihydroxy-5-[6-(3-hydroxypropylamino)-purin-9-yl]tetrahydro-furan-2-yl]methoxy-methylphosphonic acid], the IC50 under setting [1] was more than 1000 nM.

Regarding `O=P(O)(O)COC[C@H]1O[C@@H](n2ccc3c(N[C@H]4CCNC4)nc(Cl)nc32)[C@H](O)[C@@H]1O` [Compound 242, [(2R,3S,4R,5R)-5-[2-chloro-4-[[(3S)-pyrrolidin-3-yl]-amino]pyrrolo[2,3-d]-pyrimidin-7-yl]-3,4-dihydroxy-tetrahydro-furan-2-yl]methoxy-methylphosphonic acid], under setting [1], the IC50 was more than 1000 nM.

For `CC(C)(C)C(=O)OCOP(=O)(CS(=O)(=O)C[C@H]1O[C@@H](n2ccc3c(NC4CCCC4)nc(Cl)nc32)[C@H](O)[C@@H]1O)OCOC(=O)C(C)(C)C` [Compound 165, (((((((2S,3S,4R,5R)-5-(2-chloro-4-(cyclopentylamino)-7H-pyrrolo[2,3-d]pyrimidin-7-yl)-3,4-dihydroxytetrahydrofuran-2-yl)methyl)sulfonyl)methyl)phosphoryl)bis(oxy))bis(methylene) bis(2,2-dimethylpropanoate)], the IC50 under setting [1] was in the range of 100 to 1000 nM.

With `O=P(O)(O)COC[C@H]1O[C@@H](n2cnc3c(NC4CCC4)ncnc32)[C@H](O)[C@@H]1O` [Compound 34, [(2R,3S,4R,5R)-5-[6-(cyclobutylamino)-purin-9-yl]-3,4-dihydroxy-tetrahydro-furan-2-yl]methoxy-methylphosphonic acid], under setting [1], the IC50 lay within 100 to 1000 nM.

For `O=C(O)c1nc(NCc2ccccc2)c2ncn([C@@H]3O[C@H](COCP(=O)(O)O)[C@@H](O)[C@H]3O)c2n1` [Compound 6, 6-(benzylamino)-9-[(2R,3R,4S,5R)-3,4-dihydroxy-5-(phos-phonomethoxy-methyl)tetrahydro-furan-2-yl]purine-2-carboxylic acid], the IC50 under setting [1] was more than 1000 nM.

For the compound `C[C@H](Nc1ncnc2c1ncn2[C@@H]1O[C@H](COCP(=O)(O)O)[C@@H](O)[C@H]1O)c1ccccc1F` [Compound 51, [(2R,3S,4R,5R)-5-[6-[[(1S)-1-(2-fluoro-phenyl)ethyl]amino]-purin-9-yl]-3,4-dihydroxy-tetrahydro-furan-2-yl]methoxy-methylphosphonic acid], the IC50 under setting [1] was 100 to 1000 nM.

In the case of `O=P(O)(O)CP(=O)(O)OC[C@H]1O[C@@H](n2cnc3c(NC4CCCC4)nc(Cl)nc32)[C@H](O)[C@@H]1O` [Compound 282, [[(2R,3S,4R,5R)-5-[2-chloro-6-(cyclopentyl-amino)purin-9-yl]-3,4-dihydroxy-tetrahydro-furan-2-yl]methoxy-hydroxy-phosphoryl]-methylphosphonic acid], the IC50 under setting [1] was less than 10 nM.
